Assays:
Assay type in all cases: physicochemical
[1] = Solid-state stability at ambient and at low relative humidity
Method: Tamsulosin adipate dihydrate from Example 9 (1.0 g), is stayed in an open dish in an airtight chamber at temperature of 25 °C and relative humidity of below 10 % (achieved by means of dry desiccant) for 3 days.

[2] = Solid-state stability at higher temperature
Method: Tamsulosin adipate dihydrate from Example 9 (1.0 g), is heated at 80 °C for 24 h to give a glassy solid which is crushed and homogenised.

[3] = Solubility in water, relative between solid forms; details: 60-100 ml of water per gram of the salt, room temperature; compared with anhydrous or amorphous tamsulosin adipate
Method: In another embodiment of the invention tamsulosin adipate dihydrate can be prepared also from water solutions from more soluble forms of tamsulosin adipate (anhydrous or amorphous). Depending on kinetic factors two polymorphs of tamsulosin adipate dihydrate can be obtained. In another embodiment tamsulosin adipate (anhydrous or amorphous) is dissolved in a small amount of water, preferably in 60-100 ml of water per gram of the salt, most preferably in 80-90 ml per gram, preferably at room temperature. Less soluble dihydrate spontaneously precipitates from the solution, yielding tamsulosin adipate dihydrate, characterized by the peaks at about 2θ= 10.2, 10.5, 13.5, 15.5, 16.3, 21.1, 21.9° 24.3, 25.2, 28.3 and 35.9° particularly characteristic peaks are 15.5, 21.9°, 28.3, and 35.9°.

[4] = Solubility in lower alcohols compared with tamsulosin hydrochloride; details: compared with commercially available tamsulosin hydrochloride
Description: The adipate forms of tamsulosin prepared according to the present invention have favourable solubility properties. […] This property could be an indicator for better interactions with less polar surfaces (e.g. lipid barriers) and allows more homogeneous preparation of pharmaceutical preparations in which tamsulosin should be homogenously mixed with lipophilic excipients (such as in preparation of transdermal dosage forms). The adipate anion has been shown physiologically acceptable. The tamsulosin adipate has therefore appropriate properties for smooth interaction with hydrophilic and lipophilic surfaces.

With CCOc1ccccc1OCCN[C@H](C)Cc1ccc(OC)c(S(N)(=O)=O)c1 [Tamsulosin adipate dihydrate, tamsulosin adipate dihydrate form A] the “stability in extremely dry conditions” value ([1]; below 20 % relative humidity, preferably below 10 %) was “loses water”, the “stability under normal ambient conditions” value ([1]; normal ambient conditions) was “stable” and the “solid form after storage at low humidity (XRPD)” value ([1]; open dish, airtight chamber, 25 °C, relative humidity below 10 %, 3 days) was “amorphous material”. The “solid form after heating (XRPD)” value ([2]; 80 °C for 24 h) was “amorphous material with traces of anhydrous crystalline form”, the “stability at higher temperatures” value ([2]; preferably above 70 °C, most preferably above 80 °C) was “loses water” and the “solubility in water relative to other forms” value [3] was “Less soluble”.
In the case of CCOc1ccccc1OCCN[C@H](C)Cc1ccc(OC)c(S(N)(=O)=O)c1 [Tamsulosin adipate, tamsulosin adipate], the “solubility in lower alcohols” value [4] is reported as “more soluble in lower alcohols, than the commercially available tamsulosin hydrochloride”.

From patent publication EP2338876A1, “Tamsulosin adipate for pharmaceutical use” (LEK Pharmaceuticals d.d., priority 2009, dated 2011)
